Laboratory results as given in paper PMC12670164, “In vitro and clinical data demonstrate negligible risk of drug–drug interactions with opelconazole, a novel inhaled antifungal agent” (Journal of Antimicrobial Chemotherapy, 2025).
Where “and” joins values, the source holds several entries; their conditions need not be identical. Identical values can stand only once.

System: CYP1A2
Assay: CYP induction, mRNA endpoint, cryopreserved human hepatocytes
Conditions: for CYP1A2 mRNA increase: concentration-dependent, 72 h
Method: The potential for opelconazole to act as an inducer of CYP isoforms CYP1A2, CYP2B6 and CYP3A4 was assessed in vitro using an mRNA endpoint across three donors in cryopreserved human hepatocytes. A drug is interpreted as an inducer if: (1) it increases mRNA expression of a CYP enzyme in a concentration-dependent manner and (2) the fold change of CYP mRNA expression relative to vehicle control is ≥2-fold at the drug’s expected hepatic concentrations.[23]
A cytotoxicity assessment using MTT was performed in one of the three donors used for the induction studies prior to dosing.

Cc1cc(N2CCN(c3ccc(C(=O)Nc4ccc(F)cc4)cc3)CC2)ccc1OC[C@@H]1CO[C@@](Cn2cncn2)(c2ccc(F)cc2F)C1 [opelconazole]
opelconazole concentration giving threshold induction outcome (CYP1A2, in vitro): 0.3 μM and 204 ng/mL
CYP1A2 mRNA increase (donor 1, opelconazole ≥0.3 μM): 2.72 fold
CYP1A2 mRNA increase (donor 2, opelconazole ≥0.3 μM): 1.97 fold
